Experimental data as given in ChEMBL document CHEMBL1201862, “PubChem BioAssay data set” (2004).
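Step 1: Grow cells in 96-well plates. Step 2: Expose to compound for 48 hours at 5 concentrations. Step 3: Interpolate endpoints linearly; if unreached, use highest concentration. Here, GI50 denotes the concentration required for 50% inhibition of growth.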 Calls of active or inactive are those of the source. Cut-off read from the data, not from the text of the source: active = GI50 up to about 1.1 µM and inactive = higher.

Experiments:
Assay in all cases: inhibition of tumour cell growth, NCI panel, 48 h
ACHN = test system: ACHN
BT-549 = test system: BT-549
HCT-116 = test system: HCT-116
HOP-62 = test system: HOP-62
IGROV-1 = test system: IGROV-1
NCI-H226 = test system: NCI-H226
NCI-H23 = test system: NCI-H23
NCI/ADR-RES = test system: NCI/ADR-RES
RPMI-8226 = test system: RPMI-8226
SF-295 = test system: SF-295
SF-539 = test system: SF-539
SK-MEL-5 = test system: SK-MEL-5
SW-620 = test system: SW-620
U-251 = test system: U-251
UACC-257 = test system: UACC-257
UO-31 = test system: UO-31
A498 = test system: A498
MDA-MB-231 = test system: MDA-MB-231
MDA-MB-435 = test system: MDA-MB-435
T47D = test system: T47D

Measured: GI50

COc1ccc(C(O)c2nccn2C)c(OC)c1 (stereo unspecified)
inactive: ACHN > 100 µM | BT-549 > 100 µM | HCT-116 > 100 µM | HOP-62 > 100 µM | IGROV-1 > 100 µM | NCI-H226 > 100 µM | NCI-H23 > 100 µM | NCI/ADR-RES > 100 µM | RPMI-8226 > 100 µM | SF-295 > 100 µM | SF-539 > 100 µM | SK-MEL-5 86.3 µM | SW-620 > 100 µM | U-251 > 100 µM | UACC-257 > 100 µM | UO-31 > 100 µM

O=C1CCC2SC1CCC2=O
inactive: A498 > 100 µM | ACHN > 100 µM | BT-549 > 100 µM | HCT-116 > 100 µM | HOP-62 > 100 µM | IGROV-1 > 100 µM | MDA-MB-231 > 100 µM | MDA-MB-435 > 100 µM | NCI-H226 > 100 µM | NCI-H23 > 100 µM | NCI/ADR-RES > 100 µM | SF-295 > 100 µM | SF-539 > 100 µM | SK-MEL-5 > 100 µM | SW-620 > 100 µM | U-251 > 100 µM | UACC-257 > 100 µM | UO-31 > 100 µM

Cc1[nH]nc(C(=O)N/N=C/c2ccccc2Cl)c1/N=N\N(C)C
inactive: A498 2.19 µM | ACHN > 54.6 µM | BT-549 2.99 µM | HCT-116 4.05 µM | HOP-62 1.34 µM | IGROV-1 40.8 µM | MDA-MB-231 > 43.5 µM | MDA-MB-435 > 100 µM | NCI-H226 > 100 µM | NCI-H23 > 25.6 µM | NCI/ADR-RES 6.1 µM | RPMI-8226 2.51 µM | SF-295 > 54 µM | SF-539 5.56 µM | SK-MEL-5 14.6 µM | SW-620 > 33 µM | U-251 14.8 µM | UACC-257 > 84.7 µM | UO-31 > 57.8 µM

C=C(Br)CNC(=O)Nc1ccc(Cl)c(Cl)c1
inactive: A498 9.12 µM | ACHN 17.5 µM | HCT-116 17.1 µM | HOP-62 22.5 µM | IGROV-1 13.6 µM | MDA-MB-231 15.2 µM | MDA-MB-435 20.3 µM | NCI-H226 25.4 µM | NCI-H23 15.6 µM | NCI/ADR-RES 16.6 µM | RPMI-8226 17.3 µM | SF-295 26 µM | SF-539 19.3 µM | SK-MEL-5 13.8 µM | SW-620 35.4 µM | T47D 17.9 µM | U-251 22.6 µM | UO-31 11.4 µM

Oc1ccc([I+]c2ccccc2)cc1O
inactive: A498 > 100 µM | ACHN 36.8 µM | BT-549 8.36 µM | HCT-116 34.4 µM | HOP-62 34.2 µM | IGROV-1 29.7 µM | MDA-MB-231 46.7 µM | MDA-MB-435 23 µM | NCI-H226 > 100 µM | NCI-H23 26.3 µM | NCI/ADR-RES 28.9 µM | RPMI-8226 12 µM | SF-295 73.8 µM | SF-539 29.2 µM | SK-MEL-5 36 µM | SW-620 18.1 µM | U-251 17.4 µM | UACC-257 > 100 µM | UO-31 2.51 µM

CSc1nc(NC2CC2)c2c(n1)Sc1nc3ccccc3n1N=C2
inactive: A498 10.5 µM | ACHN 11 µM | BT-549 34.2 µM | HCT-116 9.73 µM | HOP-62 16.3 µM | IGROV-1 42.6 µM | MDA-MB-231 17.8 µM | MDA-MB-435 35.5 µM | NCI-H226 16.8 µM | NCI-H23 21.4 µM | NCI/ADR-RES 20.3 µM | SF-539 12.2 µM | SK-MEL-5 17 µM | SW-620 26.6 µM | U-251 20 µM | UACC-257 41.3 µM | UO-31 16.5 µM

COc1ccc(-c2c(-c3ccc(OC)cc3)n3c(=O)n(C)c(=O)n23)cc1
inactive: A498 19.4 µM | ACHN 67.1 µM | HCT-116 > 100 µM | HOP-62 22.7 µM | IGROV-1 > 100 µM | MDA-MB-231 > 100 µM | MDA-MB-435 > 100 µM | NCI-H226 60.4 µM | NCI-H23 > 100 µM | NCI/ADR-RES 18.4 µM | RPMI-8226 76.4 µM | SF-295 > 100 µM | SF-539 24.6 µM | SK-MEL-5 > 100 µM | SW-620 > 100 µM | T47D 20.6 µM | U-251 > 100 µM | UACC-257 50.5 µM | UO-31 32.3 µM
